{
  "source": "patent US20120251619A1",
  "about": "“MicroRNA-29a,b,c as a Tumor Suppressor and Sensitizing Agent for Chemotherapy” (priority 2011, published 2012)",
  "assay_type_in_all_cases": "cell-based, human",
  "key": {"[1]": {"test_system": "OVCAR-8 cells (p53-deficient ovarian cancer)", "test": "MTS proliferation assay after transient transfection of miR-29a mimic", "conditions": "OVCAR8, miR-29a mimic transiently transfected, vs parental strain and scrambled control, 48 h and 72 h", "procedure": "(§1) For the in vitro evaluation of miR-29a on cell proliferation of ovarian cancer cells, microRNA mimics of miR-29a were transiently transfected into the p53-deficient ovarian cancer cell line OVCAR8 and the p53-wild type HEYA8 and the impact of this microRNA on cell proliferation was measured by increase in absorbance from the […].\n(§2) The time course MTS assay experiments were run three times (separate days), each with a different set of biological quadruplicates (n=12 per group); within each experiment run, the viability measures within each time point were centered on the mean of the WT group for the first run. For cisplatin treatment, cells were transfected as described, and media was replaced after 24 hrs with media containing cisplatin (Sigma) (0-7.5 μg/mL). Viability was assayed 72 hrs post-transfection. Experiments were run three times, each with a different biological replicate (n=3 per group). For each run, viability measures within each concentration point were centered on the mean of values for the first run."}, "[2]": {"test_system": "HEYA8 cells (p53-wild type ovarian cancer)", "test": "MTS proliferation assay after transient transfection of miR-29a mimic", "conditions": "HEYA8, miR-29a mimic transiently transfected, vs parental strain and scrambled control, 48 h and 72 h", "procedure": "as §1, §2"}, "TIMELESS": {"test_system": "TIMELESS", "test": "QPCR of gene target after miR-29a overexpression in HEYA8 cells", "conditions": "HEYA8, forced miR-29a expression vs scrambled control and untreated", "procedure": "(§3) FIG. 4: QPCR analysis showing relative quantity of selected miR-29a anti-correlated gene targets after miR29a overexpression in HEYA8 ovarian cancer cells (SCR, scrambled control; WT, untreated; two-sided t-test P<0.05, mir-29a vs SCR and miR-29a vs WT, each comparison, except for SAE1).\n(§4) Total RNA (60 ng) was reverse transcribed in a 40 μl reaction using the TaqMan® MicroRNA Reverse Transcription Kit (ABI). QPCR was performed on a StepOne Real-Time PCR System (ABI) using Power-SYBR Green PCR Master Mix (ABI) in a 20 μl reaction and human ribosomal RNA 18s as an endogenous control (which was itself not miR-29a-regulated, data not shown). The QPCR experiments were run four times (separate days), each with independent biological samples (n=4 per group); within each experiment run, relative expression values were normalized to standard deviations from the mean."}, "CBX1": {"test_system": "CBX1", "test": "QPCR of gene target after miR-29a overexpression in HEYA8 cells", "conditions": "HEYA8, forced miR-29a expression vs scrambled control and untreated", "procedure": "as §3, §4"}, "CDC6": {"test_system": "CDC6", "test": "QPCR of gene target after miR-29a overexpression in HEYA8 cells", "conditions": "HEYA8, forced miR-29a expression vs scrambled control and untreated", "procedure": "as §3, §4"}, "DNMT3A": {"test_system": "DNMT3A", "test": "QPCR of gene target after miR-29a overexpression in HEYA8 cells", "conditions": "HEYA8, forced miR-29a expression vs scrambled control and untreated", "procedure": "as §3, §4"}, "MYBL2": {"test_system": "MYBL2", "test": "QPCR of gene target after miR-29a overexpression in HEYA8 cells", "conditions": "HEYA8, forced miR-29a expression vs scrambled control and untreated", "procedure": "as §3, §4"}, "DNMT3B": {"test_system": "DNMT3B", "test": "QPCR of gene target after miR-29a overexpression in HEYA8 cells", "conditions": "HEYA8, forced miR-29a expression vs scrambled control and untreated", "procedure": "as §3, §4"}, "SAE1": {"test_system": "SAE1", "test": "QPCR of gene target after miR-29a overexpression in HEYA8 cells", "conditions": "HEYA8, forced miR-29a expression vs scrambled control and untreated", "procedure": "as §3, §4"}, "HEYA8 cells": {"test_system": "HEYA8 cells", "test": "Proliferation/viability under cisplatin treatment after miR-29a transfection", "conditions": "HEYA8, miR-29a 72 h, cisplatin 0-7.5 μg/mL for 48 h, vs scrambled control at same cisplatin dosage", "procedure": "(§5) FIGS. 6A-6B: Effect of miR-29a (72 h) on proliferation, under a range of concentrations of cisplatin treatment (at 48 h) of HEYA8 (FIG. 6A) and OVCAR-8 cells (FIG. 6B). Error bars are standard error. Proliferation curves of the parental HEYA8 strain treated with a scrambled control sequence and with microRNA mimics for miR-29a are shown.\nas §2"}, "OVCAR-8 cells": {"test_system": "OVCAR-8 cells", "test": "Proliferation/viability under cisplatin treatment after miR-29a transfection", "conditions": "OVCAR-8, miR-29a 72 h, cisplatin 0-7.5 μg/mL for 48 h", "procedure": "as §5, §2"}},
  "note": "“Also recorded” adds a separate entry of the source.",
  "data": [
    {"substance": "miR-29a: microRNA mimic of miR-29a (5′-TAGCACCATCTGAAATCGGTTA-3′, SEQ ID NO: 13), transiently transfected into ovarian cancer cells (listed as DNA, chemistry not given here)", "values": [
      {"measurement": "effect on cell proliferation", "setting": "[1]", "value": "moderately suppress cell proliferation"},
      {"measurement": "effect on cell proliferation", "setting": "[2]", "value": "very significantly suppress cell proliferation"},
      {"measurement": "relative quantity of TIMELESS transcript (QPCR)", "setting": "TIMELESS", "value": "repressed"},
      {"measurement": "relative quantity of CBX1 transcript (QPCR)", "setting": "CBX1", "value": "repressed"},
      {"measurement": "relative quantity of CDC6 transcript (QPCR)", "setting": "CDC6", "value": "repressed"},
      {"measurement": "relative quantity of DNMT3A transcript (QPCR)", "setting": "DNMT3A", "value": "repressed"},
      {"measurement": "relative quantity of MYBL2 transcript (QPCR)", "setting": "MYBL2", "value": "repressed"},
      {"measurement": "relative quantity of DNMT3B transcript (QPCR)", "setting": "DNMT3B", "value": "repressed"},
      {"measurement": "relative quantity of SAE1 transcript (QPCR)", "setting": "SAE1", "value": "no functional repression"},
      {"measurement": "effect on proliferation under cisplatin treatment", "setting": "HEYA8 cells", "value": "suppress the proliferation of HEYA8 significantly more effectively than the scrambled control; also recorded: suppresses the proliferation of HEYA8 significantly more effectively than the scrambled control"},
      {"measurement": "effect on proliferation under cisplatin treatment", "setting": "OVCAR-8 cells", "value": "had an additional effect on chemotherapeutic agent cisplatin in inhibiting the growth"}
    ]}
  ]
}
